Assays:
[1] = Volume of distribution at steady state in Sprague-Dawley rat at 2 mg/kg, iv and 5 mg/kg, po; type: ADME, organism-based; conditions: in vivo, read-out: Vdss
[2] = biological target: Serine/threonine-protein kinase B-raf (Homo sapiens, UniProt P15056, V600E); test: Inhibition of recombinant Braf V600E mutant
[3] = biological target: Tyrosine-protein kinase Lck (Homo sapiens, UniProt P06239); test: Inhibition of LCK
[4] = Elimination half life in Sprague-Dawley rat at 2 mg/kg, iv and 5 mg/kg, po; type: ADME, organism-based; conditions: in vivo, read-out: beta t1/2 (converted)
[5] = biological target: Angiopoietin-1 receptor (Homo sapiens, UniProt Q02763); test: Inhibition of Tie2
Chain of Angiopoietin-1 receptor (Q02763 whole entry): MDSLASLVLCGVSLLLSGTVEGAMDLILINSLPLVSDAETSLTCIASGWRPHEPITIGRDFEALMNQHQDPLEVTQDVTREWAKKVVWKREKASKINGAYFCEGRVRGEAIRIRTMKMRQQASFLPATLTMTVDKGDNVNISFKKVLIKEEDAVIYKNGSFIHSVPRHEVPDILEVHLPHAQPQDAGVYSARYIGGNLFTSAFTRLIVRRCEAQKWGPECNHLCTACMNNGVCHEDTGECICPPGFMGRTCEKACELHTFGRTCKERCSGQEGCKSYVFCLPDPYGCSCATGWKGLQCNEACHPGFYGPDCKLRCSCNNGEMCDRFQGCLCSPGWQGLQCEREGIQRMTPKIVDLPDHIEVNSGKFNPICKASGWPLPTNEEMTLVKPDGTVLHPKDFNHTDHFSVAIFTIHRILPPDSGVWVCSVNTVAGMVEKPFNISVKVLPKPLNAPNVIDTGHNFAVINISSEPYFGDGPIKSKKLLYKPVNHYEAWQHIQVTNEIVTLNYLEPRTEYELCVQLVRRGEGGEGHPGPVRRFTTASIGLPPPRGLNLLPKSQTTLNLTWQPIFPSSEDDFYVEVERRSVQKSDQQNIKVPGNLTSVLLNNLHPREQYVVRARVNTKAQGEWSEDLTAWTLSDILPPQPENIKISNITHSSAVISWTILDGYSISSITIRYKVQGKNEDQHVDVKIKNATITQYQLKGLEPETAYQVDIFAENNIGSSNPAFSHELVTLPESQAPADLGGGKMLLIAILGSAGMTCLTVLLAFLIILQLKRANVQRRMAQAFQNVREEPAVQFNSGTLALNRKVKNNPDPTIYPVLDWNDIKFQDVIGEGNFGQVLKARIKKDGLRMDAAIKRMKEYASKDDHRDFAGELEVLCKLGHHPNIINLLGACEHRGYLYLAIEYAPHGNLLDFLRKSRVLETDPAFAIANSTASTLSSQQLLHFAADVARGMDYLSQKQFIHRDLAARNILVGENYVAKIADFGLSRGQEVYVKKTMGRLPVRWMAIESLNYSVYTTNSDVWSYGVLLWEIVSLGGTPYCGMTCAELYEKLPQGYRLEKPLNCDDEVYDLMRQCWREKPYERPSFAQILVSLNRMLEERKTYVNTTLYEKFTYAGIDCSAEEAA

[6] = biological target: Mitogen-activated protein kinase 14 (Homo sapiens, UniProt Q16539); test: Inhibition of p38alpha
Chain of Mitogen-activated protein kinase 14 (Q16539 whole entry): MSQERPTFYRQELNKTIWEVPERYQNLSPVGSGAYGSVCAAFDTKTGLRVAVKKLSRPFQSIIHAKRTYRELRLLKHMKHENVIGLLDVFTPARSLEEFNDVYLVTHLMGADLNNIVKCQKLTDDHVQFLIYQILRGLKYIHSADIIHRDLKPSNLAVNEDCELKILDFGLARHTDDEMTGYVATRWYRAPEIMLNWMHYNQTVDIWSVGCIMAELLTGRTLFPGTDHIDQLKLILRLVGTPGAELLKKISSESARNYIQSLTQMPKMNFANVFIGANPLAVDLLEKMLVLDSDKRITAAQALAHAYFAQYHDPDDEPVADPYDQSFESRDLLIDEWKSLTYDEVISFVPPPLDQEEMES

[7] = Clearance in Sprague-Dawley rat at 2 mg/kg, iv and 5 mg/kg, po; type: ADME, organism-based; conditions: in vivo
[8] = Oral bioavailability in Sprague-Dawley rat at 5 mg/kg; type: ADME, organism-based; conditions: in vivo
[9] = tested on: Mus musculus; test: Inhibition of ERK phosphorylation in human A375 SQ2 cells xenografted CD1 mouse at 10 mg/kg, po bid after 6 hrs; type: functional; conditions: CD1, A375-SQ2, 6 h
[10] = biological target: Vascular endothelial growth factor receptor 2 (Homo sapiens, UniProt P35968); test: Inhibition of KDR
Chain of Vascular endothelial growth factor receptor 2 (P35968 whole entry): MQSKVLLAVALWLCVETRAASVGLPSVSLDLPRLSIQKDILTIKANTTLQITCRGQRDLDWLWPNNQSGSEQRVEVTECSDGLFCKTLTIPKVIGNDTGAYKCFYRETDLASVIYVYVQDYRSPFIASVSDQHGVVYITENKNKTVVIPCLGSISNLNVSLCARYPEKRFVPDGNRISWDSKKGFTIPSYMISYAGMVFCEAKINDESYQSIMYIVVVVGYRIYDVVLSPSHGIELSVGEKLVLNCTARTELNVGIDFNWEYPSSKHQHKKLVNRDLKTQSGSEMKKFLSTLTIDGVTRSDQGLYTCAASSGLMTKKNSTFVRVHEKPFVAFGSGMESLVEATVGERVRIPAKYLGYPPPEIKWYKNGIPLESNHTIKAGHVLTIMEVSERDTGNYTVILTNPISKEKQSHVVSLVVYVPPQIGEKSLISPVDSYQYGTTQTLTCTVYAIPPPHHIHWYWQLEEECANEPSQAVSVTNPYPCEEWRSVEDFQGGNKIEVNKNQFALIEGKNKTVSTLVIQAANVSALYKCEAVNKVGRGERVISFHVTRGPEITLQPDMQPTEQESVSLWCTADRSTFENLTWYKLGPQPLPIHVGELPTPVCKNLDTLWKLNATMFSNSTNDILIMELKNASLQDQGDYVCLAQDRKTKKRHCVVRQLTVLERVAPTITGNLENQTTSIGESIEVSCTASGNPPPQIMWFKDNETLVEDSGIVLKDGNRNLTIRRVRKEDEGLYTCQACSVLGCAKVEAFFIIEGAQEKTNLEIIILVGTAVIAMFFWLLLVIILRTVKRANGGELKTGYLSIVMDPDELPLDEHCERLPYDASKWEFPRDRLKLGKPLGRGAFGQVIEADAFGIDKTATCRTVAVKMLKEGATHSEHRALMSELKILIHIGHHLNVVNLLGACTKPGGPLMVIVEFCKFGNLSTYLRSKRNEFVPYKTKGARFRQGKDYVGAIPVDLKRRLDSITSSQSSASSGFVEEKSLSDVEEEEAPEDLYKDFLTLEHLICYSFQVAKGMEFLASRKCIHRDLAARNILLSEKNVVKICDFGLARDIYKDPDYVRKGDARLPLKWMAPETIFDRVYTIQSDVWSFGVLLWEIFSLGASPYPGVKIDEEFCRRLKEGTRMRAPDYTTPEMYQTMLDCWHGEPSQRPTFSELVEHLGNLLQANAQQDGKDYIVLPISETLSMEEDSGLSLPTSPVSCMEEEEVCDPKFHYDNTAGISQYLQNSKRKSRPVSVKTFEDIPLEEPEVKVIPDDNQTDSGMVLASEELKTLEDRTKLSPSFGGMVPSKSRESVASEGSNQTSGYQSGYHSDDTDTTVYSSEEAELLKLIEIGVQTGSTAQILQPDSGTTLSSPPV

[11] = tested on: Mus musculus; test: Inhibition of ERK phosphorylation in human A375 SQ2 cells xenografted CD1 mouse at 17.5 mg/kg, po bid after 6 hrs; type: functional; conditions: CD1, A-375, 6 h
[12] = AUC (0 to 24 hrs) in human A375 SQ2 cells xenografted po dosed CD1 mouse administered twice daily for 14 days; type: ADME, organism-based; design: time < 24 hr, route oral; conditions: in vivo
[13] = tested on: A-375; test: Antitumor activity against human A375 SQ2 cells xenografted in po dosed CD1 mouse assessed as inhibition of tumor growth administered twice daily for 14 days; type: functional; conditions: 336 h
[14] = tested on: A-375; test: Antitumor activity against human A375 SQ2 cells xenografted in CD1 mouse assessed as regression of tumor growth at 35 mg/kg, po bid for 14 days; type: functional
[15] = tested on: Mus musculus; test: Inhibition of ERK phosphorylation in human A375 SQ2 cells xenografted CD1 mouse at 35 mg/kg, po bid after 6 hrs; type: functional; conditions: CD1, A375-SQ2, 6 h
[16] = tested on: A-375; test: Antitumor activity against human A375 SQ2 cells xenografted in CD1 mouse assessed as inhibition of tumor growth at 10 mg/kg, po bid for 14 days; type: functional; conditions: A375-SQ2, 336 h
[17] = tested on: A-375; test: Antitumor activity against human A375 SQ2 cells xenografted in CD1 mouse assessed as inhibition of tumor growth at 17.5 mg/kg, po bid for 14 days; type: functional; conditions: A375-SQ2, 336 h
[18] = tested on: A-375; test: Antitumor activity against human A375 SQ2 cells xenografted in CD1 mouse assessed as inhibition of tumor growth at 20 mg/kg, po bid for 14 days; type: functional; design: Activity: scale not given: the % may be the effect or the level left; conditions: for inhibition in vivo at 20 mg/kg: Mus musculus, A375-SQ2, 336 h
[19] = tested on: Mus musculus; test: Inhibition of ERK phosphorylation in human A375 SQ2 cells xenografted CD1 mouse at 20 mg/kg, po bid after 6 hrs; type: functional; conditions: CD1, A375-SQ2, 6 h
[20] = tested on: A-375; test: Antitumor activity against human A375 SQ2 cells xenografted in CD1 mouse assessed as inhibition of tumor growth at 5 mg/kg, po bid for 14 days; type: functional; conditions: A375-SQ2, 336 h
[21] = tested on: Mus musculus; test: Inhibition of ERK phosphorylation in human A375 SQ2 cells xenografted CD1 mouse at 5 mg/kg, po bid after 6 hrs; type: functional; conditions: CD1, A-375, 6 h
[22] = tested on: A-375; test: Antitumor activity against human A375 SQ2 cells xenografted in CD1 mouse assessed as inhibition of tumor growth at 60 mg/kg, po bid for 14 days; type: functional; conditions: A375-SQ2, 336 h
[23] = tested on: Mus musculus; test: Inhibition of ERK phosphorylation in human A375 SQ2 cells xenografted CD1 mouse at 60 mg/kg, po bid after 6 hrs; type: functional; conditions: CD1, A375-SQ2, 6 h
[24] = tested on: A-375; test: Antitumor activity against human A375 SQ2 cells xenografted in CD1 mouse assessed as inhibition of tumor growth at 30 mg/kg, po bid for 14 days; type: functional; conditions: A-375, 336 h
[25] = tested on: Mus musculus; test: Inhibition of ERK phosphorylation in human A375 SQ2 cells xenografted CD1 mouse at 100 mg/kg, po bid after 6 hrs; type: functional; conditions: CD1, A375-SQ2, 6 h
[26] = tested on: A-375; test: Antitumor activity against human A375 SQ2 cells xenografted in CD1 mouse assessed as regression of tumor growth at 100 mg/kg, po bid for 14 days; type: functional
[27] = tested on: Mus musculus; test: Inhibition of ERK phosphorylation in human A375 SQ2 cells xenografted CD1 mouse at 30 mg/kg, po bid after 6 hrs; type: functional; conditions: CD1, A375-SQ2, 6 h

Chain of Serine/threonine-protein kinase B-raf (P15056 2-766 V600E limits assumed): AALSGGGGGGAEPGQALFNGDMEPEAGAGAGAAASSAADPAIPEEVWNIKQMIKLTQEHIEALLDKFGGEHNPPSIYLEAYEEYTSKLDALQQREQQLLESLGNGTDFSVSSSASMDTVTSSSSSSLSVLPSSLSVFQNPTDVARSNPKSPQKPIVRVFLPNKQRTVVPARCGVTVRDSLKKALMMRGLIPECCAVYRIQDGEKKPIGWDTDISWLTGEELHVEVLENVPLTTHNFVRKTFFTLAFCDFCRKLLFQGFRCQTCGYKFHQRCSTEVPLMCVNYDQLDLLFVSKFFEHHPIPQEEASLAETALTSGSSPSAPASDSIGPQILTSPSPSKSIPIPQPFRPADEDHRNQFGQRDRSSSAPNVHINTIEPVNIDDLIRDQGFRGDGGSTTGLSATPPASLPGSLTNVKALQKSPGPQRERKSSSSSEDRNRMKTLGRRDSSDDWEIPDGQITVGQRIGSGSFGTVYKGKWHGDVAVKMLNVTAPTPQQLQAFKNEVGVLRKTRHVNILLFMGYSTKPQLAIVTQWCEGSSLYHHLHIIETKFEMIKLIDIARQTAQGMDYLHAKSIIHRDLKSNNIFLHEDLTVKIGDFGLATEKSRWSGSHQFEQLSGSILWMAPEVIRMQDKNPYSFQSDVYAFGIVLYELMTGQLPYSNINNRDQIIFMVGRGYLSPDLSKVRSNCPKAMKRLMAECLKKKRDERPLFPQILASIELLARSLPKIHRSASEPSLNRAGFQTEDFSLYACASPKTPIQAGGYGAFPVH
Chain of Tyrosine-protein kinase Lck (P06239 whole entry): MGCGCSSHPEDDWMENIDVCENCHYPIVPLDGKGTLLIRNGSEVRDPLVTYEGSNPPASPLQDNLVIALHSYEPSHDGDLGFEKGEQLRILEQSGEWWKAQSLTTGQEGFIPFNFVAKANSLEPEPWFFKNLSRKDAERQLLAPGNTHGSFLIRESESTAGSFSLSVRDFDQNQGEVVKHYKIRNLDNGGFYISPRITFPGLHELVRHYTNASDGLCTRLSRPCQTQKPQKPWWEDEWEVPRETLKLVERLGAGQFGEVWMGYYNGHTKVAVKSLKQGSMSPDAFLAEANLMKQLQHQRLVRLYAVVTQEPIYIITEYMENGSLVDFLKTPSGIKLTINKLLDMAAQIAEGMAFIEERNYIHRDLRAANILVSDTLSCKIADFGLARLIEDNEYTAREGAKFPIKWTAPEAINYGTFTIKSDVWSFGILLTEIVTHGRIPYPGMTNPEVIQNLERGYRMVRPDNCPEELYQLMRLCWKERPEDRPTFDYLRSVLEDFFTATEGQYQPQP

Vd [1]	IC50 [3]	half-life [4]	IC50 [5]	IC50 [6]	clearance [7]	bioavailability [8]	IC50 [10]	SMILES	IC50 [2]	ED50 [13]	Activity [14]	inhibition in vivo at 35 mg/kg [15]	further results
0.37 L/kg	150 nM	2.7 h	400 nM	> 1600 nM	1.83 mL/min/kg	100%	> 1000 nM	CNc1cc(-c2cccnc2Nc2c(C)ccc3c(Nc4ccc(C#N)cc4)nccc23)ncn1	39 nM	11.5 mg/kg	17%	78%	inhibition in vivo at 10 mg/kg [9]: 21%; inhibition in vivo at 17.5 mg/kg [11]: 63%; AUC at 24 h [12]: 52800 ng·h/mL; inhibition in vivo at 10 mg/kg [16]: 50%; inhibition in vivo at 17.5 mg/kg [17]: 80%
2.2 L/kg	280 nM	3.5 h	520 nM	> 1600 nM	11.2 mL/min/kg	83%	> 25000 nM	Cc1ccc2c(Nc3ccc(Cl)cc3)nccc2c1Nc1ncccc1-c1ccncn1	3.4 nM				
1.9 L/kg		1.3 h		12 nM	35 mL/min/kg	16%	4.2 nM	Cc1ccc(C(=O)Nc2cccc(C(F)(F)F)c2)cc1Nc1ncccc1-c1ccncn1	0.46 nM				
0.72 L/kg	23 nM	2.9 h	5.8 nM	350 nM	5.5 mL/min/kg	100%	170 nM	CNc1cc(-c2cccnc2Nc2c(C)ccc3c(Nc4ccc5sc(C)nc5c4)nccc23)ncn1		11 mg/kg	24%	66%	inhibition in vivo at 20 mg/kg [18]: 85%; inhibition in vivo at 10 mg/kg [9]: 30%; AUC at 24 h [12]: 12300 ng·h/mL; inhibition in vivo at 20 mg/kg [19]: 52%; inhibition in vivo at 10 mg/kg [16]: 42%
3.7 L/kg	81 nM	4.5 h	47 nM	> 1600 nM	20 mL/min/kg	22%	760 nM	Cc1ccc2c(Nc3cccc(C(F)(F)F)c3)nccc2c1Nc1ncccc1-c1ccncn1	17 nM				

Second part, the compound before the results:

SMILES	Vd [1]	IC50 [3]	half-life [4]	IC50 [5]	IC50 [6]	clearance [7]	bioavailability [8]	IC50 [10]	IC50 [2]	ED50 [13]	Activity [14]	inhibition in vivo at 35 mg/kg [15]	further results
CNc1ncc2cc(-c3cc(C(=O)Nc4cccc(C(F)(F)F)c4)ccc3C)ccc2n1	3.6 L/kg	0.27 nM	2.3 h	1.8 nM	3.5 nM	26.7 mL/min/kg			1.7 nM				
CNc1cc(-c2cccnc2Nc2c(C)ccc3c(Nc4ccc(Cl)cc4)nccc23)ncn1	1.7 L/kg	12 nM	4.7 h	24 nM	> 1600 nM	4.83 mL/min/kg	100%	300 nM	56 nM				
CNc1ncc2cc(-c3c(C)ccc4c(Nc5ccc6c(c5)NC(=O)C6(C)C)nccc34)ccc2n1	4.3 L/kg	78 nM	4.8 h	> 1000 nM	51 nM	10.8 mL/min/kg	55%	240 nM	21 nM	4.7 mg/kg	75%	85%	Activity [18]: 55%; inhibition in vivo at 10 mg/kg [9]: 60%; inhibition in vivo at 20 mg/kg [19]: 82%; inhibition in vivo at 10 mg/kg [16]: 85%
C#Cc1cccc(Nc2nccc3c(Nc4ncccc4-c4cc(NC)ncn4)c(C)ccc23)c1	2.2 L/kg	210 nM	2.8 h	8.1 nM	450 nM	12.2 mL/min/kg	76%	420 nM		13 mg/kg	54%	81%	inhibition in vivo at 20 mg/kg [18]: 78%; inhibition in vivo at 5 mg/kg [20]: 18%; AUC at 24 h [12]: 9410 ng·h/mL; inhibition in vivo at 20 mg/kg [19]: 40%; inhibition in vivo at 5 mg/kg [21]: 5%
CNc1ncc2cc(-c3c(C)ccc4c(Nc5cc(C(C)(C)C)nn5C)nccc34)ccc2n1	5.5 L/kg	21 nM	3.9 h	200 nM	110 nM	30 mL/min/kg	24%	230 nM		27 mg/kg			inhibition in vivo at 60 mg/kg [22]: 90%; inhibition in vivo at 60 mg/kg [23]: 67%; inhibition in vivo at 30 mg/kg [24]: 60%; inhibition in vivo at 100 mg/kg [25]: 78%; Activity [26]: 45%; inhibition in vivo at 30 mg/kg [27]: 50%
CNc1ncc2cc(-c3c(C)ccc4c(Nc5ccc(Cl)cc5)nccc34)ccc2n1		110 nM		> 1000 nM	> 1600 nM			> 25000 nM	5.4 nM				
